# Data as given in ChEMBL document CHEMBL3785087, “Synthesis and biological activities of indolizine derivatives as alpha-7 nAChR agonists” (Eur J Med Chem, 2016).
# pEC50, pKi: −log10 of the molar value.
# What was measured:
# Type in all cases: cell-based
# [1] = target: T1, Neuronal acetylcholine receptor subunit alpha-7 (Homo sapiens, UniProt P36544); test: Agonist activity at human alpha7 nAChR expressed in xenopus oocytes preincubated for 10 mins followed by acetylcholine addition by patch clamp electrophysiological assay
# T1 sequence (P36544 whole entry): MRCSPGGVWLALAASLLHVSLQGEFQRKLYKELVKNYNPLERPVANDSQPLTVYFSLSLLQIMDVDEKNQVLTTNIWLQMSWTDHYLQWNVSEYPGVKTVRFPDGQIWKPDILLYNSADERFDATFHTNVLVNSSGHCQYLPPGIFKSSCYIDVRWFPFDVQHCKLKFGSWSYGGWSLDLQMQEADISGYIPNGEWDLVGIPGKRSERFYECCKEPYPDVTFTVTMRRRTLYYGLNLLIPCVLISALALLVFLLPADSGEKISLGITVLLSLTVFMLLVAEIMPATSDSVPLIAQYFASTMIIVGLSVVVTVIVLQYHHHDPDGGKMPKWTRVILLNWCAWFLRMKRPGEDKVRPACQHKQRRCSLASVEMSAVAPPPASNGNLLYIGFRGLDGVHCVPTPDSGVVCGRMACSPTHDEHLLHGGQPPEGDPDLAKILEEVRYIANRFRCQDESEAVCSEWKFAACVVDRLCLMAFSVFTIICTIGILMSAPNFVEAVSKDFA
# [2] = target: T1, Neuronal acetylcholine receptor subunit alpha-7; test: […] to human alpha7 nAChR expressed in xenopus oocytes preincubated for 10 mins followed by acetylcholine addition by patch clamp electrophysiological assay relative to acetylcholine; parameters: concentration or dose not given beside the values
# [3] = target: T1, Neuronal acetylcholine receptor subunit alpha-7; test: Displacement of [3H]-MLA from human alpha7 nAChR expressed in xenopus oocytes in presence of alpha7 nAChR positive allosteric modulator PNU-120596
# [4] = target: T1, Neuronal acetylcholine receptor subunit alpha-7; test: Displacement of [3H]-MLA from human alpha7 nAChR expressed in xenopus oocytes
Structure (SMILES),pEC50 [1],Activity [2] [%],pKi [3],pKi [4]
CCOC(=O)c1cc(C(=O)c2ccccc2)n2ccc(C(=O)N[C@H]3CN4CCC3CC4)cc12,< 4.70,< 1,,
CCOC(=O)c1cc(C(=O)c2ccccc2O)n2ccc(C(=O)N[C@H]3CN4CCC3CC4)cc12,< 4.70,< 1,,
CCOC(=O)c1cc(C(=O)c2cccc(Cl)c2)n2ccc(C(=O)N[C@H]3CN4CCC3CC4)cc12,< 4.70,< 1,,
O=C(N[C@H]1CN2CCC1CC2)c1cc2c(F)cccn2c1,5.55,63.7,,
O=C(N[C@H]1CN2CCC1CC2)c1cc2cc(Br)ccn2c1,4.98,34.7,,
O=C(N[C@H]1CN2CCC1CC2)c1cc(C(=O)c2ccc(-c3ccccc3)cc2)n2ccccc12,< 4.70,< 1,,
O=C(N[C@H]1CN2CCC1CC2)c1cc2cccc(Br)n2c1,,64.3,7.03,7.83
Cc1cccc2cc(C(=O)N[C@H]3CN4CCC3CC4)cn12,5.67,66,,
O=C(N[C@H]1CN2CCC1CC2)c1cc2ccc(-c3cccs3)cn2c1,< 4.70,< 1,,
CCOC(=O)c1cc(C(=O)c2ccccc2)n2cccc(C(=O)N[C@H]3CN4CCC3CC4)c12,< 4.70,< 1,,
Cc1cccc(-c2cccc3cc(C(=O)N[C@H]4CN5CCC4CC5)cn23)c1,5.40,63.9,,
O=C(N[C@H]1CN2CCC1CC2)c1cc2ccc(Br)cn2c1,5.02,86.3,,
O=C(N[C@H]1CN2CCC1CC2)c1cc2c(-c3ccccc3)cccn2c1,< 4.70,< 1,,
O=C(N[C@H]1CN2CCC1CC2)c1cc(C(=O)c2ccccc2)n2ccccc12,< 4.70,< 1,,
CCOC(=O)c1cc(C(=O)c2ccc(Cl)c(Cl)c2)n2ccc(C(=O)N[C@H]3CN4CCC3CC4)cc12,< 4.70,< 1,,
O=C(N[C@H]1CN2CCC1CC2)c1cc2c(Cl)cccn2c1,< 4.70,< 1,,
O=C(N[C@H]1CN2CCC1CC2)c1cc(C(=O)c2ccccc2Br)n2ccccc12,< 4.70,< 1,,
Cc1nc2c(Br)cccn2c1C(=O)N[C@H]1CN2CCC1CC2,< 4.70,< 1,,
CCOC(=O)c1cc(C(=O)c2ccccc2)n2cc(C(=O)N[C@H]3CN4CCC3CC4)ccc12,< 4.70,< 1,,
O=C(N[C@H]1CN2CCC1CC2)c1cc2cccc(Cl)n2c1,5.60,63.2,,
Cc1nc2ccc(F)cn2c1C(=O)N[C@H]1CN2CCC1CC2,< 4.70,< 1,,
Cc1ccccc1-c1ccc2cc(C(=O)N[C@H]3CN4CCC3CC4)cn2c1,< 4.70,< 1,,
O=C(N[C@H]1CN2CCC1CC2)c1cc2cccc(-c3ccsc3)n2c1,5.45,40.8,,
CCOC(=O)c1cc(C(=O)c2cccc(C(F)(F)F)c2)n2ccc(C(=O)N[C@H]3CN4CCC3CC4)cc12,< 4.70,< 1,,

Structure (SMILES),pEC50 [1],Activity [2] [%],pKi [3],pKi [4]
O=C(N[C@H]1CN2CCC1CC2)c1cc(C(=O)c2ccc(Cl)cc2)n2ccccc12,< 4.70,< 1,,
O=C(N[C@H]1CN2CCC1CC2)c1cc2c(Br)cccn2c1,5.32,75.9,,
O=C(N[C@H]1CN2CCC1CC2)c1cc2ccc(-c3ccccc3)cn2c1,< 4.70,< 1,,
O=C(N[C@H]1CN2CCC1CC2)c1cc(C(=O)c2cccc(Br)c2)n2ccccc12,< 4.70,< 1,,
CC(C)(C)c1ccc(-c2ccc3cc(C(=O)N[C@H]4CN5CCC4CC5)cn3c2)cc1,< 4.70,< 1,,
O=C(N[C@H]1CN2CCC1CC2)c1cc2cc(-c3ccccc3)ccn2c1,< 4.70,< 1,,
O=C(N[C@H]1CN2CCC1CC2)c1cc2cc(Cl)ccn2c1,5.16,19.6,,
O=C(N[C@H]1CN2CCC1CC2)c1cc2ccccn2c1,5.08,57.1,,
O=C(N[C@H]1CN2CCC1CC2)c1cc2ccc(-c3ccsc3)cn2c1,< 4.70,< 1,,
O=C(N[C@H]1CN2CCC1CC2)c1cc(C(=O)c2cccc(Cl)c2)n2ccccc12,< 4.70,< 1,,
O=C(N[C@H]1CN2CCC1CC2)c1cc2ccc(Cl)cn2c1,< 4.70,< 1,,
O=C(N[C@H]1CN2CCC1CC2)c1cc2cccc(Cl)c2s1 [ENCENICLINE],6.47,33.5,,
Cc1cccc(-c2ccc3cc(C(=O)N[C@H]4CN5CCC4CC5)cn3c2)c1,< 4.70,< 1,,
CN(C)c1cccc(-c2cccc3cc(C(=O)N[C@H]4CN5CCC4CC5)cn23)c1,< 4.70,< 1,,
CCOC(=O)c1cc(C(=O)c2ccc(F)cc2)n2ccc(C(=O)N[C@H]3CN4CCC3CC4)cc12,< 4.70,< 1,,
Cc1ccccc1-c1cccc2cc(C(=O)N[C@H]3CN4CCC3CC4)cn12,5.33,17.6,,
CCOC(=O)c1cc(C(=O)c2cccc(F)c2)n2ccc(C(=O)N[C@H]3CN4CCC3CC4)cc12,< 4.70,< 1,,
CCOC(=O)c1cc(C(=O)c2cccc([N+](=O)[O-])c2)n2ccc(C(=O)N[C@H]3CN4CCC3CC4)cc12,< 4.70,< 1,,
O=C(N[C@H]1CN2CCC1CC2)c1cnc2ccccn12,< 4.70,< 1,,
CC(C)(C)c1ccc(-c2cccc3cc(C(=O)N[C@H]4CN5CCC4CC5)cn23)cc1,5.07,23.9,,
O=C(N[C@H]1CN2CCC1CC2)c1cc(C(=O)c2ccccc2F)n2ccccc12,< 4.70,< 1,,
O=C(N[C@H]1CN2CCC1CC2)c1cc2cccc(-c3ccccc3)n2c1,5.40,59.8,,
O=C(N[C@H]1CN2CCC1CC2)c1cc(C(=O)c2ccc3ccccc3c2)n2ccccc12,< 4.70,< 1,,
O=C(N[C@H]1CN2CCC1CC2)c1cc2cccc(-c3ccc(-c4ccccc4)cc3)n2c1,4.85,18,,
